The values that follow come from patent US20240294550A1, “8-OXA-3-AZABICYCLO[3.2.1]OCTANE COMPOUNDS OR SALT THEREOF, AND PREPARATION METHOD AND USE THEREOF” (LITTDD MEDICINES LTD, priority 2021, published 2024).

Read-outs that look alike come from different tables or passages of the source.

A short description of data set [1]: Metabolic stability in human liver microsomes. The format is in vitro ADME. As to conditions: for half-life at 1 μM: 1 μM compound; for microsomal CLint at 1 μM: read-out: CLint(mic). The method, then:
(§1) Drug-like Properties: Concepts, Structure Design and Methods: from ADME to Toxicity Optimization. […] Screen. […] After incubation for appropriate time (such as 5, 10, 20, 30 and 60 minutes), samples were collected, and an appropriate termination solution (glacial acetonitrile containing 200 ng/mL tolbutamide and 200 ng/mL labetalol (i.e. acetonitrile at 4° C.)) was added to stop the reaction. Sample treatment (n=1): each appropriate sample was added, vortexed and centrifuged at high speed. The supernatants were collected, and detected the substrate by HPLC-MS/MS. The peak area at the 0 min was set as 100%. The peak areas at other time points were converted to percentages of the remaining amount. The natural logarithms of the percentage of remaining amount at each time point was plotted against the incubation time, and the slope (−k) was calculated. Then, Clint (μL/min/mg) and half-life (T½, min) of the compounds were calculated following the equation: Inherent clearance rate (Clint)=(k*Volume of incubation solution)/Mass of liver microsomes.

The nature of data set [2]: Metabolic stability in mouse liver microsomes. The format is in vitro ADME, CD-1 mice. As to conditions: for half-life at 1 μM: CD-1, 1 μM compound; for microsomal CLint at 1 μM: CD-1, read-out: CLint(mic). The method, then: as §1
For orientation: Liver microsomes are a subcellular fraction often used to study metabolism.

The target of data set [3] is ATR (Homo sapiens (Human), UniProt Q13535). Put plainly: ATR kinase inhibition assay (HTRF). The format is biochemical. The settings on record: p53 substrate, ATP 150 nM. The method, then: This experiment adopted Homogeneous time-resolved fluorescence technology (HTRF®) of Cisbio Company for assay.
Experiment method: buffers were prepared as follows:
Preparation of solutions of the test compounds: The example compounds shown in the table below were prepared into solutions using DMSO as solvent, the stock solution typically being 10 mM. The maximum starting concentration in this experiment was 3 μM, DMSO 3-fold serial dilutions for concentrations, the serially diluted solution was added to each well of the corresponding 384-well plate (geriner bio-one, Cat #784075) to give final concentrations of 3000, 1000, 333, 111, 37, 12.3, 4.12, 1.37, 0.457, 0.152 nM, respectively, and the corresponding amount of DMSO was added to the additional wells to be used as negative or positive control wells, respectively.
The enzyme and substrate were separately dissolved and diluted in two tubes with the buffer prepared above at the following concentrations:
5 μL of the ATR protein solution from tube A was added to the compound-containing wells and the negative control wells in the assay plates using an electric multichannel pipettor, and the same volume of the prepared buffer (medium only, no enzyme) was added to the positive control wells. The plates were centrifuged for one minute at 1000 rpm, and then placed in an incubator at 25° C. for 15 minutes. 5 μL of the substrate mix solution from tube B was added to the positive control well, negative control well and the compound-containing well of the assay plates in the same manner, centrifuged and incubated at 25° C. for 90 minutes.
During the reaction, after ATR phosphorylated the substrate p53, two antibodies were added. Among them, anti-phospho-p53-Eu, as an energy donor, can specifically bind to the phosphorylation site of p53, while anti-GST-d2, as an energy receptor, can specifically bind to the GST-tagged p53. Upon excitation by a laser with certain wavelength (the excitation wavelength in this experiment is 340 nm), the energy donor can emit emission light of 615 nm, and when the energy donor and the energy receptor are close enough in space (that is, two antibodies are connected to p53 at the same time), energy transfer can occur between the energy donor and the energy receptor, so that the energy receptor can emit emission light of 665 nm. The two emission lights were detected by a plate reader, and the ratio of the signals at 665 nm and 615 nm was calculated. The IC50 of the samples tested can be obtained by plotting and calculation.
10 μL per well of the detection solution was added to the positive control, negative control and compound wells of the assay plate using an electric multichannel pipette, centrifuged and incubated overnight at 4° C., and read with the plate reader Envision 2104.
Compound inhibition rate was calculated using interpolation. The mean values of the positive and negative controls were calculated respectively, and the following formula was used to calculate the inhibition rates of the compounds:
Inhibition rate Minimum response+(Compound concentration ^Curve slope)*(Maximum response−Minimum response)/(Compound concentration^Curve slope+Half inhibition concentration ^Curve slope)
The IC50 value of each compound to enzyme activity was obtained.
On the technique in general: In TR-FRET formats the signal depends on donor and acceptor labels being close together.

Data set [4] is described as follows: Pharmacokinetic (PK) assay in mice. The settings on record: CD-1 mice; for AUC(0-t): read-out: AUC0-24 h. The format is in vivo. The method, then:
The PK of each compound was determined as follows: 6 CD-1 mice (obtained from Shanghai Lingchang Biotechnology Co., Ltd.) were divided into two groups, 3 mice in each group. […] Blood samples were collected from saphenous vein of lower leg in each group at 0, 0.083, 0.25, 0.5, 1, 2, 4, 6, 8 and 24 h after administration. Approximately 40 μL of the blood samples were collected in anticoagulant tubes containing EDTA-K2. Immediately after collection, the tubes were inverted at least 5 times to ensure adequate mixing, and then placed on ice. The blood samples collected at each time point were centrifuged at 4° C., 8000 rpm for 5 minutes to obtain plasma. Another 1.5 mL centrifuge tube was marked with the compound name, animal number, and time point, and the plasma was transferred to this tube. The plasma was stored at −80° C. until analysis.
Compound concentrations in plasma were determined by UPLC-MS/MS method, and the pharmacokinetic parameters were calculated by Phoenix WinNolin 6.4 pharmacokinetic software on the obtained data.

Data set [5] has as its system LOVO cells. Put plainly: Cell proliferation assay (CellTiter-Glo). The format is cell-based. As to conditions: Homo sapiens, 96 hours. The procedure: The cell proliferation inhibition effect of the compound of the invention was tested using CellTiter-Glo™ cell viability assay kit. This kit uses luciferase as the detector. During the luminescence process, the luciferase requires the participation of ATP. CellTiter-Glo™ reagent was added to the cell culture medium, and the luminescence value was measured. The light signal is proportional to the amount of ATP present in the system, and ATP positively correlates with the number of viable cells present, thus the cell proliferation activity is measured.
Cell culture and seeding: LOVO cells in logarithmic growth phase (human colon carcinoma cells) (ATCC CCL-229) were harvested and counted using a platelet counter. Trypan blue exclusion method was used to detect the cell viability to ensure that the cell viability was above 90%. 90 μL of cell suspension (RPMI1640+10% fetal bovine serum) was added to a 96-well transparent flat-bottom black-wall plate (Thermo, 165305) respectively, and the cell concentration was adjusted to 3000/well/90 μl. Cells in the 96-well plate were incubated overnight at 37° C., 5% CO2 with 95% humidity (Thermo, Model 3100 Series).
Firstly, DMSO was used as the solvent to prepare 10 mM mother solution of the test compounds, and then PBS was used to dilute 100 times to prepare a solution of 10 times of final concentration, the highest concentration was 100 μM. 10 μL solution of the test compounds was added to each well of the 96 well plate inoculated with cells, namely the solution was further diluted 10 times to reach the final concentration of 10 μM. Starting from 10 μM, the final concentration of the test compound was 3-fold serially diluted, with 9 concentrations in total with 3 triplicates for each concentration. The 96 well plates with the test compounds and cells were incubated at 37° C., 5% CO2 and 95% humidity for 96 hours, and then CellTiter Glo analysis was performed.
CellTiter-Glo Reagents (CellTiter Glo R Luminescent Cell Viability Assay, Promega, G7572) were melted and the 96-well plates were equilibrated to room temperature for 30 minutes. An equal volume of CellTiter-Glo solution was added to each well, and the cells were lysed by shaking on the fixed orbit shaker for 5 minutes. The assay plates were left at room temperature for 20 minutes to stabilize the luminescence signal, and the luminescence signals were read using the SpectraMax multi-labeled microplate detector (MD, M3).
Data were analyzed using GraphPad Prism 7.0 software, fitted with non-linear S-curve regression to derive the dose-response curves, and IC50 values were calculated therefrom.
Cell survival rate (%)=(LumDrug to be tested−LumCulture medium control)/(LumCell control−LumCulture medium control)×100%

Sequence of ATR (Q13535 whole entry): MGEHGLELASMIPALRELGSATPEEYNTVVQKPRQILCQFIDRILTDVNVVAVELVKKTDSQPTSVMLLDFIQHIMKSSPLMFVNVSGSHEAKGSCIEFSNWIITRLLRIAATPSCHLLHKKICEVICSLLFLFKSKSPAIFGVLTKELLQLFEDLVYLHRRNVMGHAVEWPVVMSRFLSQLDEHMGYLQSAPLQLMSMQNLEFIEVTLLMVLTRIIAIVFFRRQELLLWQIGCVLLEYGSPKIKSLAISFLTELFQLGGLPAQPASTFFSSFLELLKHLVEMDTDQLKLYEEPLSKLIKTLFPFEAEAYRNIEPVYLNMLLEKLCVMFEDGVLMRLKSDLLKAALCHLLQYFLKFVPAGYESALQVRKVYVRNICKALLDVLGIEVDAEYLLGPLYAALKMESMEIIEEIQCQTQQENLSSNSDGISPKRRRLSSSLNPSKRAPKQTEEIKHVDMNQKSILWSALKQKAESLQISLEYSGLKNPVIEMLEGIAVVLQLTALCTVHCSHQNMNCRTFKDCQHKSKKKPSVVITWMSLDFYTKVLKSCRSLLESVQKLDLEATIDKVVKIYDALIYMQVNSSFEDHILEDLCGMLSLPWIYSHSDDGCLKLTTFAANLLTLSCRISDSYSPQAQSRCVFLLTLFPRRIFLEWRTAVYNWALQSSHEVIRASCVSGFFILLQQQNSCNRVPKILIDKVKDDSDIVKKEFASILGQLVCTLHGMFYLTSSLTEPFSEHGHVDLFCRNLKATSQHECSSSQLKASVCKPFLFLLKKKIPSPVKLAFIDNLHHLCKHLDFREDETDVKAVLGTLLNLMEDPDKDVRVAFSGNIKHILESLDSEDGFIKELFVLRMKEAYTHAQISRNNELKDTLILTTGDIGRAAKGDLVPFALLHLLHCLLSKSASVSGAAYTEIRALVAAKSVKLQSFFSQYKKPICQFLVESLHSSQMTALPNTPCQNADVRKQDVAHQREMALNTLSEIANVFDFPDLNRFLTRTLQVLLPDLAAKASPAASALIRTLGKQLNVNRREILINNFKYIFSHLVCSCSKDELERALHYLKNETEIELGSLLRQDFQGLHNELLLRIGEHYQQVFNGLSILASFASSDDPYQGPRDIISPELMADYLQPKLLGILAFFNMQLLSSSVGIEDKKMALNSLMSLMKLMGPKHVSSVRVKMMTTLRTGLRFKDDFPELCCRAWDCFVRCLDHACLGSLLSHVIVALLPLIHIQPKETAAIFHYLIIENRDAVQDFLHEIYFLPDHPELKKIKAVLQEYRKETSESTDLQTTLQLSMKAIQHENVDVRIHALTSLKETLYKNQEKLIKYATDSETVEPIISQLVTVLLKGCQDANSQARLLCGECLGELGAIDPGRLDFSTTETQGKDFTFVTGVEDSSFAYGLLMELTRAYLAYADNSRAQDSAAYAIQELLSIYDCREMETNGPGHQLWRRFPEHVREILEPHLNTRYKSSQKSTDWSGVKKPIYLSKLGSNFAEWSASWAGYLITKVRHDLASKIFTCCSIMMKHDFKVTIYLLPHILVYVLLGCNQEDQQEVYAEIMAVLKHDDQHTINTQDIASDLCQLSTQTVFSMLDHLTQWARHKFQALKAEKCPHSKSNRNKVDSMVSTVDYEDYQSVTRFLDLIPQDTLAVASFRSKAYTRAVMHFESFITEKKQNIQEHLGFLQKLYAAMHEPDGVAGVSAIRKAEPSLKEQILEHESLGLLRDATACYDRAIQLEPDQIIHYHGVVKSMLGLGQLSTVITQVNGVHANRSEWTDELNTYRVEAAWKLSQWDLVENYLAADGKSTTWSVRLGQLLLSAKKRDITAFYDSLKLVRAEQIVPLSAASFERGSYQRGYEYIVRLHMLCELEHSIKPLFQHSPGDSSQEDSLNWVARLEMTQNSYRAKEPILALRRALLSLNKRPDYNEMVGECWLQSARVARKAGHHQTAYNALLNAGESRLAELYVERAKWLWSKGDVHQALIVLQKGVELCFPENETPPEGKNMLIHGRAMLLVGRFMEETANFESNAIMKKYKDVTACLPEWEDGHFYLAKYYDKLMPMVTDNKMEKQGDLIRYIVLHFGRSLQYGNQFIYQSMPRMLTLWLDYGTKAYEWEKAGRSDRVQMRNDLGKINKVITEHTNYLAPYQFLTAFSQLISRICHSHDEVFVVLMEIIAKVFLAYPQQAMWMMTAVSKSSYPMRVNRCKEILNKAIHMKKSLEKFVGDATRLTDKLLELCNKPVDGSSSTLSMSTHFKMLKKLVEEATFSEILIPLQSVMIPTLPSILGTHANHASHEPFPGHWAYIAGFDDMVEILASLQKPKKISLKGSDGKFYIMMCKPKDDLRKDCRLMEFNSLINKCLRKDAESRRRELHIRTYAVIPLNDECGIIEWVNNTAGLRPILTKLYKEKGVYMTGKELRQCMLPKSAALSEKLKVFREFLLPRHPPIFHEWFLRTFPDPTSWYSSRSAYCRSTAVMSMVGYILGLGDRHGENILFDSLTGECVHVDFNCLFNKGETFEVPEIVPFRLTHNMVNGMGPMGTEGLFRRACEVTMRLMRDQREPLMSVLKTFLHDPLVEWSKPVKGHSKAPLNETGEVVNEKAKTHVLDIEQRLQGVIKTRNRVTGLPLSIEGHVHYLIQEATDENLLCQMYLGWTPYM
Sequence of ATR (Q8WXE1 whole entry partner): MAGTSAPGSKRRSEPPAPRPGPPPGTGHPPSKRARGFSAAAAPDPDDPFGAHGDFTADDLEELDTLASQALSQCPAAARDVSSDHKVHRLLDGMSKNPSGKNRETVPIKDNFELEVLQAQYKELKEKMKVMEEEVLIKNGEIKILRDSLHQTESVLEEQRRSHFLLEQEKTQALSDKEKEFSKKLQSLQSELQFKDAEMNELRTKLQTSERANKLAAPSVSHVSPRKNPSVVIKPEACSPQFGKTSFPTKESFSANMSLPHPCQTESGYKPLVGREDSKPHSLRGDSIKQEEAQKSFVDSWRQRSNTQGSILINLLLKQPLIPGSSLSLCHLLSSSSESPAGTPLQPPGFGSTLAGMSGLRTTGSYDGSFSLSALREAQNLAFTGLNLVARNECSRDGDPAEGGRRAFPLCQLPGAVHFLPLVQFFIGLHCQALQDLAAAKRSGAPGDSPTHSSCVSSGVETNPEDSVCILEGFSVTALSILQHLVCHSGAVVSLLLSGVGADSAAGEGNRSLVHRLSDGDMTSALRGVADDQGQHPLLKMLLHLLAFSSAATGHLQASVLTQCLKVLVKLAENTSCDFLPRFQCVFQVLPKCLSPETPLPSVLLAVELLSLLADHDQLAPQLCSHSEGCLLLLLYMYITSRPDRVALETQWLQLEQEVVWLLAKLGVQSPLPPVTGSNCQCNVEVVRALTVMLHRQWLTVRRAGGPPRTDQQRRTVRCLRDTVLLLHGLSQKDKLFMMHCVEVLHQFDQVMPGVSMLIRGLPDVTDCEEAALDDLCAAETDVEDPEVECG

In the case of `C[C@@H]1COCCN1c1cc(N2CC3CCC(C2)O3)nc2c1cnn2-c1cc[nH]n1` [Example 5, 3-(4-((R)-3-methylmorpholino)-1-(1H-pyrazol-3-yl)-1H-pyrazolo[3,4-b]pyridin-6-yl)-8-oxa-3-azabicyclo[3.2.1]octane], in data set [1], the half-life (in general, the time in which the quantity being followed falls by half) at 1 μM was > 2.42 h; the “Remain % (T = 60 min)” value is reported as 77.1%; the microsomal CLint at 1 μM is < 9.6 µL/min/mg. In addition, in data set [2], the half-life at 1 μM is 1.12 h, the microsomal CLint at 1 μM came to 20.5 µL/min/mg and the “Remain % (T = 60 min)” value was found to be 56.6%. For the same compound, inhibition in data set [3] was half-maximal at 8.2 nM (IC50). In addition, the CL_obs in data set [4] (IV dose 1 mg/kg) is on record as 6.15 mL/min/kg. Besides, the half-life in data set [4] (mouse, plasma, IV dose 1 mg/kg) was 3.45 h. Besides, the Vd in data set [4] (mouse, plasma, IV dose 1 mg/kg, read-out: Vss) was found to be 0.75 L/kg. This compound also showed a half-life in data set [4] (mouse, plasma, Po dose 5 mg/kg) of 2.58 h. In addition, the bioavailability – broadly, the share of a dose that reaches the circulation, judged against a reference dose that is usually intravenous – in data set [4] (mouse, plasma, Po dose 5 mg/kg vs IV dose 1 mg/kg) is 69%. In addition, in data set [4] (mouse, IV dose 1 mg/kg, plasma), the C0 came to 2180 ng/mL and the AUC(0-t) came to 2700 ng·h/mL. Besides, in data set [4] (mouse, Po dose 5 mg/kg, plasma), the peak level (Cmax) was 3020 ng/mL and the AUC(0-t) was 9330 ng·h/mL. Also, half-maximal inhibition in data set [5] (IC50) was put at 384 nM.

Take `c1cc(-c2ncc3c(N4CC5CCC(C4)O5)cc(N4CC5CCC(C4)O5)nn23)n[nH]1` [Example 6, 3-(4-(8-oxa-3-azabicyclo[3.2.1]octan-3-yl)-7-(1H-pyrazol-3-yl)imidazo[1,5-b]pyridazin-2-yl)-8-oxa-3-azabicyclo[3.2.1]octane]: in data set [1], the half-life at 1 μM is > 2.42 h, the “Remain % (T = 60 min)” value amounted to 74.8% and the microsomal CLint at 1 μM is < 9.6 µL/min/mg. Moreover, in data set [2], the half-life at 1 μM turned out to be 0.56 h, the microsomal CLint at 1 μM is 41.3 µL/min/mg and the “Remain % (T = 60 min)” value is on record as 30.7%. Further, the midpoint of inhibition in data set [3], the IC50, lay at 13.2 nM. Also, in data set [5], the IC50 (commonly the concentration that gives 50% inhibition) is 97 nM.

Turning to `Cn1nccc1-c1cc(N2CC3CCC(C2)O3)nc2c(-c3cc[nH]n3)cnn12` [Example 26, 3-(7-(1-methyl-1H-pyrazol-5-yl)-3-(1H-pyrazol-3-yl)pyrazolo[1,5-a]pyrimidin-5-yl)-8-oxa-3-azabicyclo[3.2.1]octane], the IC50 in data set [3] worked out at 57.7 nM; in data set [5], 1270 nM.

For the compound `CC(=O)N1CCN(c2cc(N3C[C@H]4CC[C@@H](C3)O4)nn3c(-c4cc[nH]n4)ncc23)[C@H](C)C1` [Example 29, 1-((R)-4-(2-((1R,5S)-8-oxa-3-azabicyclo[3.2.1]octan-3-yl)-7-(1H-pyrazol-3-yl)imidazo[1,5-b]pyridazin-4-yl)-3-methylpiperazin-1-yl)ethan-1-one], the values for the IC50 in data set [3] and in data set [5] were 4.5 nM and 488 nM, respectively.

As for `C[C@@H]1CC(F)(F)CCN1c1cc(N2CC3CCC(C2)O3)nn2c(-c3cc[nH]n3)ncc12` [Example 31, 3-(4-((R)-4,4-difluoro-2-methylpiperidin-1-yl)-7-(1H-pyrazol-3-yl)imidazo[1,5-b]pyridazin-2-yl)-8-oxa-3-azabicyclo[3.2.1]octane], the IC50 was 3.9 nM in data set [3] and 158 nM in data set [5].

For the compound `C[C@H]1CC(F)(F)CCN1c1cc(N2CC3CCC(C2)O3)nn2c(-c3cc[nH]n3)ncc12` [Example 32, 3-(4-((S)-4,4-difluoro-2-methylpiperidin-1-yl)-7-(1H-pyrazol-3-yl)imidazo[1,5-b]pyridazin-2-yl)-8-oxa-3-azabicyclo[3.2.1]octane], the results for the IC50 in data set [3] and in data set [5] were 5.6 nM and 156 nM, respectively.

As to `CC(=O)N1CCN(c2cc(N3C[C@H]4CC[C@@H](C3)O4)nc3c2cnn3-c2cc[nH]n2)[C@H](C)C1` [Example 34, 1-((R)-4-(6-((1R,5S)-8-oxa-3-azabicyclo[3.2.1]octan-3-yl)-1-(1H-pyrazol-3-yl)-1H-pyrazolo[3,4-b]pyridin-4-yl)-3-methylpiperazin-1-yl)ethan-1-one], the IC50 worked out at 7.6 nM in data set [3] and 424 nM in data set [5].

With `OCC1COCCN1c1cc(N2C[C@H]3CC[C@@H](C2)O3)nc2c1cnn2-c1cc[nH]n1` (stereo partly drawn) [Example 35, (4-(6-((1R,5S)-8-oxa-3-azabicyclo[3.2.1]octan-3-yl)-1-(1H-pyrazol-3-yl)-1H-pyrazolo[3,4-b]pyridin-4-yl)morpholin-3-yl)methanol], the results for the IC50 in data set [3] and in data set [5] were 15.3 nM and 522 nM, respectively.

For the compound `CC1(C)COCCN1c1cc(N2CC3CCC(C2)O3)nc2c(-c3ccn[nH]3)cnn12` [Example 36, 3-(7-(3,3-dimethylmorpholino)-3-(1H-pyrazol-5-yl)pyrazolo[1,5-a]pyrimidin-5-yl)-8-oxa-3-azabicyclo[3.2.1]octane], the IC50 in data set [3] worked out at 6.2 nM; in data set [5], 148 nM.
